Experimental data as given in patent US20240182407A1, “QUINOLINE COMPOUND SALT OR CRYSTAL FORM, PREPARATION METHOD THEREFOR, AND APPLICATION THEREOF” (Nanjing Zenshine Pharmaceuticals Co., Ltd., priority 2021, published 2024).

Assays:
SU-DHL-4 = experiment: Proliferation of lymphoma cell line in vitro, SU-DHL-4; type: cell-based; conditions: Homo sapiens, read-out: absolute IC50 (AbsIC50), proliferation
DoHH-2 = experiment: Proliferation of lymphoma cell line in vitro, DoHH-2; type: cell-based; conditions: Homo sapiens, read-out: absolute IC50 (AbsIC50), proliferation
PI3Kβ (p110β) = PI3Kβ (p110β) (Homo sapiens, UniProt P42338); experiment: ADP-Glo kinase inhibition, PI3Kβ; conditions: read-out: IC50 PI3Kβ Biochemical
Description: (§1) In Example 7, the inhibitory effects of Sample 6 prepared in Example 6 above on kinases PI3Kα, PI3Kβ, PI3Kγ and PI3Kδ were tested.
(§2) The kinases used in the experiment were respectively purchased from: • PI3Kα (p110α/p85α), purchased from Invitrogen, under Cat. No. PV4788; • PI3Kβ (p110β), purchased from eurofins, under Cat. No. 14-603M; • PI3Kδ (p110δ/p85a), purchased from Invitrogen, under Cat. No. PV6452; and • PI3Kγ (p110γ), purchased from Invitrogen, under Cat. No. PR8641C. • Firstly, a 1× kinase buffer solution was prepared, which comprised: • 50 mM HEPES, pH 7.5 • 3 mM MgCl2 • 1 mM EGTA • 100 mM NaCl • 0.03% CHAPS • 2 mM DTT
(§3) On kinases PI3Kα, PI3Kβ and PI3Kγ, the final detection concentration of the compound was 10 μM. 100× concentration was prepared, i.e., 1000 μM. 90 μL of 100% DMSO was added to the second well in row A on a 96-well plate, 10 μL of a 10 mM compound solution was then added, and 3-fold serial dilution was made to obtain a total of 10 concentrations.
(§4) 50 μL of 100% DMSO was transferred to two empty wells as Max well and Min well, respectively.
(§5) 50 nL of the compound was transferred into a 384-well plate using ECHO550.
(§6) Preparation of 2× kinase solution: the kinase was added to a 1× kinase buffer to prepare a 2× enzyme solution. […]
(§7) Finally, the chemiluminescence values were read from Envision 2104 Multi-label Reader and subjected to curve fitting, and IC50 was calculated.

[1] = system: mouse colorectal cancer CT26. WT cell; experiment: Mouse colorectal cancer CT26. WT cell subcutaneous transplantation tumor model; type: in vivo
From the text: WT cell subcutaneous transplantation tumor model.

PI3Kβ = biological target: T1, PI3Kβ (Homo sapiens, UniProt P42338); experiment: Akt phosphorylation in PC-3 cells stimulated by LPA (AlphaLISA); conditions: phosphorylation of Akt, read-out: IC50 PI3Kβ Cell-based
T1 construct: host or cells: PC-3 cells
Description: (§8) In addition, taking Sample 6 as an example, the inhibitory effects thereof on PI3Kα, PI3Kβ, PI3Kγ and PI3Kδ in corresponding cells were determined. The activity of PI3Kα was detected by the phosphorylation level of Akt in C2Cl2 cells stimulated by IGF-1, the activity of PI3Kβ was detected by the phosphorylation level of Akt in PC-3 cells stimulated by LPA, the activity of PI3Kγ was detected by the phosphorylation level of Akt in Raw264.7 cells stimulated by c5α, and the activity of PI3Kδ was detected by the phosphorylation level of Akt in Raji cells stimulated by IgM. The phosphorylation level of Akt in cells was determined by means of AlphaLISA technique from PerkinElemer.
(§9) The C2C12 cells, PC-3 cells, Raw264.7 cells and Raji cells were all purchased from ATCC.

PI3Kα (p110α/p85α) = biological target: T2, PI3Kα (p110α/p85α) (Homo sapiens, UniProt P42336); experiment: ADP-Glo kinase inhibition, PI3Kα; conditions: read-out: IC50 PI3Kα Biochemical
T2 construct: purchased Invitrogen PV4788
Description: as §1, §2, §3, §4, §5, §6, §7

PI3Kγ = biological target: T3, PI3Kγ (Mus musculus, UniProt Q9JHG7); experiment: Akt phosphorylation in Raw264.7 cells stimulated by c5α (AlphaLISA); conditions: phosphorylation of Akt, read-out: IC50 PI3Kγ Cell-based
T3 construct: host or cells: Raw264.7 cells
Description: as §8, §9

[2] = system: human-derived lymphoma DoHH-2 cell line; experiment: Human-derived lymphoma DoHH-2 subcutaneous xenograft in CB17/SCID female immunodeficient mice; type: in vivo, mouse; conditions: Day 24
Description: In Example 8, the anti-tumor effects of p-toluenesulfonate of Compound A at various dosages by intragastric administration on human-derived lymphoma DoHH-2 cell line subcutaneous transplantation CB17/SCID female immunodeficient mouse model were evaluated.
7-9-week-old CB17/SCID female immunodeficient mice were subcutaneously inoculated with […] DoHH-2 cells to establish a subcutaneous human lymphoma xenograft tumor model. When the average tumor volume in the mice reached 68 mm^3, the mice were randomly divided into groups and dosed on the day of grouping. The treatment method for each treatment group and vehicle control group was as follows:
p-toluenesulfonate of Compound A (Sample 6), given 100 mg/kg (p.o. QD) group, once daily, for 25 days (days 0-24);
p-toluenesulfonate of Compound A (Sample 6), given 30 mg/kg (p.o. QD) group, once daily, for 25 days (days 0-24);
positive treatment group (Duvelisib, purchased from Shanghai Lollane biological technology Co., Ltd.), given 50 mg/kg (p.o. BID) twice daily with an interval of 12 h, for 24 days; and
vehicle control group (5% DMSO/40% PEG400/55% water, by volume) (p.o. QD), given once daily, for 25 days (days 0-24).
There were 10 mice in each group, and all the mice were administered starting on the day of grouping (Day 0) and euthanized on Day 24 after grouping (Day 24). The efficacy was evaluated according to the tumor volume at the end point of the experiment.
The abbreviation p.o. stood for oral gavage, QD stood for once daily, and BID stood for twice daily.
The relative tumor inhibition rate (TGI) was calculated by the following formula: […]
T and C were respectively the average tumor volumes in the experimental group and the vehicle control group at a specific time point.

[3] = Crystal form stability under grinding (XRPD); type: physicochemical; conditions: ground in a mortar for 2 min
Description: In addition, the stability of p-toluenesulfonate crystal form I (Sample 8) under grinding and high humidity conditions was investigated.
A certain amount of p-toluenesulfonate crystal form I was ground in a mortar for 2 min and then measured by XRPD.

T2 sequence (P42336 whole entry): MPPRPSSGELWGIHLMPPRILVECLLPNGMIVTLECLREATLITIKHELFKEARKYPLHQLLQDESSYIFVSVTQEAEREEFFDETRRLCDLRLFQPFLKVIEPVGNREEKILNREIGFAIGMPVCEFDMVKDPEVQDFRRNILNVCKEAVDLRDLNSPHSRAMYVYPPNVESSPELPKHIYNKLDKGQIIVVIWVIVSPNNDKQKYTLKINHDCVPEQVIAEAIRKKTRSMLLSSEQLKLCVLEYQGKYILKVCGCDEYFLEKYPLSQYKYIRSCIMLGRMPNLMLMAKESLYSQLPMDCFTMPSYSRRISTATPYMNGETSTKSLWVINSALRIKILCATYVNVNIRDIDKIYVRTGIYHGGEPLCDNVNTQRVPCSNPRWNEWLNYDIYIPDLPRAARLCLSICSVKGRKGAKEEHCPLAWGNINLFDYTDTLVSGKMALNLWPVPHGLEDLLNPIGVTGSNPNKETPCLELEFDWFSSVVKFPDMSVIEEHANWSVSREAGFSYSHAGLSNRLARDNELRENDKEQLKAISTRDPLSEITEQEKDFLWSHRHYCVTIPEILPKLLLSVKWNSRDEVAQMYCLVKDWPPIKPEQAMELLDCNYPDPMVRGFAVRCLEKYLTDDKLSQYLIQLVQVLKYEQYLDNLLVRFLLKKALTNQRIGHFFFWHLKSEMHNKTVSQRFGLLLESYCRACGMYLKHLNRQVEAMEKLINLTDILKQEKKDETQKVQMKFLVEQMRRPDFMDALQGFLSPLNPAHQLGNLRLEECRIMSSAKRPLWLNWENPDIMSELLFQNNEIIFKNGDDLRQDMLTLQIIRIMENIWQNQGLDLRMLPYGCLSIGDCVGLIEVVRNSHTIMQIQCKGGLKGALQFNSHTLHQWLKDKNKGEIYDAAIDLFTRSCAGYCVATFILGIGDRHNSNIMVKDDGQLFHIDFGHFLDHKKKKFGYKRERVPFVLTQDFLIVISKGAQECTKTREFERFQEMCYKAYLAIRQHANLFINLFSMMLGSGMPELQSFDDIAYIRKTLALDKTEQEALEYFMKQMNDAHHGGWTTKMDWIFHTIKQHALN
T2 sequence (P27986 whole entry partner): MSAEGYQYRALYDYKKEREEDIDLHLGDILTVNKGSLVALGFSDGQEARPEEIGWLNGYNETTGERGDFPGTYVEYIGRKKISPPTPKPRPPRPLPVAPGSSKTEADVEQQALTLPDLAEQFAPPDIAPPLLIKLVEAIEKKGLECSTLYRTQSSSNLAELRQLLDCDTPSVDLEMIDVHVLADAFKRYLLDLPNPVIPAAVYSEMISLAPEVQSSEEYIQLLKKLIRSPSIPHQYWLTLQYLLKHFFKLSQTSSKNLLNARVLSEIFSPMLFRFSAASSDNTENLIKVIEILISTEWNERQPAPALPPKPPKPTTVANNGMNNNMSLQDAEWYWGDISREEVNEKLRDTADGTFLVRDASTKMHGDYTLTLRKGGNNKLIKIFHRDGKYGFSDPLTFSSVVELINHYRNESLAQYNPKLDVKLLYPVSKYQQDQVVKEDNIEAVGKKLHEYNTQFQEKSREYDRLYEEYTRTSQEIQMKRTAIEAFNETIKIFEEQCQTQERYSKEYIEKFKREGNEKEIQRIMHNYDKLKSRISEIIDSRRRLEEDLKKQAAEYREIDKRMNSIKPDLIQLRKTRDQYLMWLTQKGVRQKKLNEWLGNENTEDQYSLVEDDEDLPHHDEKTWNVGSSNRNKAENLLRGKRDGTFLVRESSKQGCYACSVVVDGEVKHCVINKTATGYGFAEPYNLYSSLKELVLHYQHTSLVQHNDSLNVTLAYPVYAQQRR
Chain of PI3Kβ (p110β) (P42338 whole entry): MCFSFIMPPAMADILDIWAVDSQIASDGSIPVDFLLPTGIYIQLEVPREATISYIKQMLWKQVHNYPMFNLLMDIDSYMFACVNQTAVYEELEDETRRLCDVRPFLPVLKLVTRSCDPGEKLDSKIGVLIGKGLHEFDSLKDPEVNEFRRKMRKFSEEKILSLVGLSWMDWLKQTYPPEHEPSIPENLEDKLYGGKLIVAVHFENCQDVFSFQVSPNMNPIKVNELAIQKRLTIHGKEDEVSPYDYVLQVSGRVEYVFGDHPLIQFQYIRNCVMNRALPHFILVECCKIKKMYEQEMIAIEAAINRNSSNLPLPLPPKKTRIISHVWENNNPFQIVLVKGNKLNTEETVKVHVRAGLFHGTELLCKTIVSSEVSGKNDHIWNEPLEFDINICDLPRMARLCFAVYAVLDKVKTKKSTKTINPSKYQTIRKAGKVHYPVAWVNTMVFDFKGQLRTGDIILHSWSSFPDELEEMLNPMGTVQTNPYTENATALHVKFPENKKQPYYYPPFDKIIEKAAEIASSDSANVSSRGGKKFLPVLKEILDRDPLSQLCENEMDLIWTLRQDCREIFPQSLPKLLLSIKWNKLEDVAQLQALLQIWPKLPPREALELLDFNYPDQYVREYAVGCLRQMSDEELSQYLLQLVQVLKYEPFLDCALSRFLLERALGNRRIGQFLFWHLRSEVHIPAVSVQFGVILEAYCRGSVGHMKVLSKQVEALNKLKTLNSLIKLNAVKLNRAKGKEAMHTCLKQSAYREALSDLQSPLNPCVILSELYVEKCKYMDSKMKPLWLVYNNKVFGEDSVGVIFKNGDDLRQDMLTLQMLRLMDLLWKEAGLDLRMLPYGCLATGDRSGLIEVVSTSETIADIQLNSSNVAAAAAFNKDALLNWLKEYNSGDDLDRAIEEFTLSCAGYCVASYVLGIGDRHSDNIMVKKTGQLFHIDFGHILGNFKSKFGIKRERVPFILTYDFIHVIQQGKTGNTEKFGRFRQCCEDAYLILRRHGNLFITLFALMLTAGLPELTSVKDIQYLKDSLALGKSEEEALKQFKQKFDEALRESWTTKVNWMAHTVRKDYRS
T1 sequence (P42338 whole entry): as above
T1 sequence (P27986 whole entry partner): as the sequence (P27986 whole entry partner) above
T3 sequence (Q9JHG7 whole entry): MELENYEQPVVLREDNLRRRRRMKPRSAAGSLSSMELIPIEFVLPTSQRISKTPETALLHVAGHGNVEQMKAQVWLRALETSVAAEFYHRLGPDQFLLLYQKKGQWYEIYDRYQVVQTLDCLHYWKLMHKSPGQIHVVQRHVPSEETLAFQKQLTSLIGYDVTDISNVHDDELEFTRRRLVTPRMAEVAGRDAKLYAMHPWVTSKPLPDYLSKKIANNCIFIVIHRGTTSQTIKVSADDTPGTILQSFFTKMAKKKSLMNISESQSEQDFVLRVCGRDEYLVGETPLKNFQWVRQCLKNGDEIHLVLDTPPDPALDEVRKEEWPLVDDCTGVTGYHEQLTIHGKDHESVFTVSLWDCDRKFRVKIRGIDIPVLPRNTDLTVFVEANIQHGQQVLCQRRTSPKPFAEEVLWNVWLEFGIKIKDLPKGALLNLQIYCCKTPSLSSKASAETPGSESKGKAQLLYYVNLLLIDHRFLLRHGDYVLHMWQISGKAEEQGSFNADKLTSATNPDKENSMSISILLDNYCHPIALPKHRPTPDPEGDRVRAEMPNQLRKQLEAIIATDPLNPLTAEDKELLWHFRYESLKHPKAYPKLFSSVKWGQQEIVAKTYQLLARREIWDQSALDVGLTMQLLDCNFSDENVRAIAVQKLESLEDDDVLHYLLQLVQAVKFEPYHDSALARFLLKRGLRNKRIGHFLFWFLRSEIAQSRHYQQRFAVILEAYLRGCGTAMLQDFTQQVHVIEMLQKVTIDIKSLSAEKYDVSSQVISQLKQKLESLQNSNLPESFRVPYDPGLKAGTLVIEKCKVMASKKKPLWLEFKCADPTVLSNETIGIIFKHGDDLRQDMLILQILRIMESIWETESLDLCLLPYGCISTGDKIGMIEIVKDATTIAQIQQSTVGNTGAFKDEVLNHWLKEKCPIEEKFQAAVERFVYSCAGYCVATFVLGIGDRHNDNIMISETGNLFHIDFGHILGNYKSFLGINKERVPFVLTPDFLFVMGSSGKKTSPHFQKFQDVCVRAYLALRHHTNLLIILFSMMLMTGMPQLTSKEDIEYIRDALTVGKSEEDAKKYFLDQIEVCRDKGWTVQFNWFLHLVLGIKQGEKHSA

C[C@H](Nc1nc(N)nc(N)c1C#N)c1cc2ccc(F)cc2nc1-c1ccccn1 [p-toluenesulfonate of Compound A]
IC50 (SU-DHL-4): < 100 nM | IC50 (DoHH-2): < 100 nM | IC50 (PI3Kβ (p110β)): 44 nM | effect on tumor volume growth [1]: significant inhibitory effect | IC50 (PI3Kβ): 126 nM | IC50 (PI3Kα (p110α/p85α)): 117 nM | IC50 (PI3Kγ): 29 nM | average tumor volume ([2]; 30 mg/kg p.o. QD): 984.45 mm^3 | relative tumor inhibition rate (TGI) ([2]; 30 mg/kg p.o. QD): 54% | average tumor volume ([2]; 100 mg/kg p.o. QD): 549.05 mm^3 | relative tumor inhibition rate (TGI) ([2]; 100 mg/kg p.o. QD): 75% | crystal form after grinding (XRPD) [3]: still p-toluenesulfonate crystal form I
